# Reference: patent US20030073730A1, “Use of amino-isoxazolidone compounds for treatment of memory impairment following traumatic brain injury” (G.D. Searle & Co., priority 1994, published 2003)
# Legend:
# [1] = molecular target: T1, NMDA receptor complex, [3H]TCP binding to synaptic plasma membranes (Rattus norvegicus, UniProt P35439); assay: Assay B: TCP Modulation Assay (stimulation of [3H]TCP binding); settings: for effect on glycine dose-response of [3H]TCP binding: D-cycloserine 0-100 μM
# T1 construct: Triton X-100 washed synaptic plasma membranes (SPM) prepared from rat forebrain; from tissue; host or cells: rat forebrain synaptic plasma membranes (male Sprague-Dawley, 30-45 days old), Triton X-100 washed
# Description: [^3H]TCP binding was performed using Triton X-100 washed synaptic plasma membranes (SPM) prepared from rat forebrain (30-45 day old, male SpragueDawley; Sasco, St. Charles, Mo.) as described previously [J. W. Thomas, W. F. Hood, J. B. Monahan, P. C. Contreras and T. L. O'Donohue, Brain Res., 442, 396-398 (1988)]. […] The samples were then filtered through glass fiber filters (Schleicher and Schuell #32) which were pretreated with 0.05% (v/v) polyethylenimine. The filters were washed and the radioactivity quantitated by liquid scintillation spectrometry. […] The EC50 values for the stimulation of [^3H]TCP binding were determined using a four parameter logistic regression analysis.
# [2] = test system: mentally disturbed patients; settings: 500 mg per day; cited from earlier work
# [3] = test system: normal young and elderly human volunteers; settings: single oral doses of 5 and 15 mg; cited from earlier work
# [4] = test system: patients with post-traumatic memory impairment; assay: Assay C: Post-Traumatic Memory Impairment Study (WMS and MAS); type: in vivo, human; design: MAS Visual Memory score, least-square mean corrected for baseline / MAS Visual Memory, mean change from baseline / WMS Logical Memory score, mean / WMS Visual Reproduction score, mean / MAS Visual Memory score, mean / MAS Short Term Memory score, mean / MAS Verbal Memory score, mean: scale not given here
# Description: The primary objective of this pilot study was to assess in patients with post-traumatic memory impairment: 1) The effect of a single 15 mg dose of cycloserine using the Wechsler Memory Scale (WMS) [D. Wechsler, Wechsler Memory Scale, Manual., Psychological Corporation, New York (1945)]; and 2) The effect of 5 multiple doses of 15 mg of cycloserine over 72 hours using the Memory Assessment Scales (MAS) [J. M Williams, The Memory Assessment Scales., Pyschological Assessment Resources, Odessa, Fla. (1991)]. The secondary objective of this study was to evaluate the safety of cycloserine in patients with traumatic brain injury.
# The study was conducted by six investigators at six investigational sites in the United States. This was a multicenter, randomized, doubleblind, parallel group, placebo-controlled study in headtrauma patients who were experiencing significant memory disorder. Patients were randomized to receive placebo or 15 mg doses of cycloserine for a total of five equally spaced doses (morning and evening) over a 72-hour period. Safety and efficacy measurements were obtained at the screening and on Days 1 through 4 of the study. A sufficient number of patients were enrolled in the study to assure that 60 evaluable patients (30 in the cycloserine treatment group and 30 in the placebo treatment group) would complete the study.
# Patients considered for enrollment were to have sustained closed head injury (ICD-9-CM#800) and post-traumatic memory impairment established by clinical examination supported by the Hahnemann Orientation and Memory Examination (HOME) [J. M. Williams, In: C. J. Long, L. Ross and M. Mutchnick, eds. Traumatic Brain Injury, Plenum, N.Y. (1990)]. The Anterograde Amnesia score was to be between 0 and 21 inclusive and the patient was to have sufficient cognitive recovery to complete the Hahnemann Memory Screening Test (MST) with a score of at least 9 [J. M. Williams, Ibid.]. Patients were to be at least 18 years of age, weighing between 40 and 100 kg, and female patients could not be at risk of pregnancy. Patients were to have a stable medical condition following the traumatic injury and be judged by the investigator to have adequate nutritional status. [Patients could have other traumatic injuries provided they were under treatment and there was no clinically significant infection or general sepsis.]
# Criteria for exclusion from the study included current or history of significant systemic disorder, brain disorder, or any neurological disorder with cognitive implications other than traumatic brain injury (e.g., brain tumor). Also excluded were patients with current or history of diagnosed epilepsy or documented convulsions, or clinically significant abnormalities of thyroid function, folic acid or B12. Clinically significant cardiovascular, renal, pulmonary, hepatic, gastrointestinal, infectious or hematological illness could preclude patient participation in the study (judgment of the Investigator). Concomitant medication, or medication given within seven days prior to the start of the study could preclude patient participation in the study (judgment of the Investigator and/or Clinical Monitor). Inability to follow study procedures, poor comprehension of study language, uncorrectable loss of hearing or eyesight which would interfere with study participation excluded patients from the study. Patients who had received an acridine derivative within 90 days prior to enrollment or another investigational drug within 30 days enrollment or who were known to have a hypersensitivity to cycloserine or related compounds were also excluded. This study also excluded patients taking or expected to take Hydergine, cerebral vasodilators, nootropics, choline, lecithin or amino acids. Clinically significant laboratory values outside the normal range or previous admission to the study excluded patients from participation in the study.
# All study medication was provided by G. D. Searle & Co., Skokie, Ill. […]
# elderly population = settings: absence of scopolamine, single oral doses of 5 and 15 mg; cited from earlier work
smiles,measurement,setting,value
NCC(=O)O [Glycine],maximum specific [3H]TCP binding,"[1]; 0.6 μM glycine, basal binding 2583±381 DPM",4712±779 DPM
"NC1CONC1=O (single isomer, unassigned) [D-cycloserine, 4-amino-3-isoxazolidone]",clinical response in mental disorders,[2],"improvements in depression, insomnia, anexoria or tension were found for some patients"
same,effect on scopolamine-induced memory deficits,[3],can ameliorate some memory deficits induced by scopolamine
same,effect on glycine dose-response of [3H]TCP binding,[1]; glycine concentrations 0.1-15 μM,rightward shift in the dose-response curve
same,effect on glycine dose-response of [3H]TCP binding,[1]; glycine concentrations below 0.1 μM,potentiated the glycine stimulation
same,effect on glycine stimulation of [3H]TCP binding,[1]; in the presence of glycine 0.1-0.6 μM,reduces the maximal level of glycine stimulation
same,"MAS Short Term Memory score, mean",[4]; Baseline,81.7
same,"MAS Verbal Memory score, mean",[4]; Baseline,78.2
same,"MAS Visual Memory score, mean",[4]; Baseline,77.2
same,"WMS Logical Memory score, mean","[4]; Baseline, prior to first dose",8.88
same,"WMS Visual Reproduction score, mean","[4]; Baseline, prior to first dose",8.70
same,"WMS Logical Memory score, mean","[4]; Day 2, after one 15 mg dose",8.24
same,"WMS Visual Reproduction score, mean","[4]; Day 2, after one 15 mg dose",8.42
same,WMS Visual Reproduction score corrected for baseline versus placebo,"[4]; Day 2, one dose, p=0.59",did not differ significantly
same,WMS Logical Memory score corrected for baseline versus placebo,"[4]; Day 2, one dose, p=0.72",did not differ significantly
same,"MAS Short Term Memory score, mean","[4]; Day 4, after five 15 mg doses",85.9
same,"MAS Verbal Memory score, mean","[4]; Day 4, after five 15 mg doses",75.8
same,"MAS Visual Memory score, mean","[4]; Day 4, after five 15 mg doses",85.5
same,"MAS Visual Memory score, least-square mean corrected for baseline","[4]; Day 4, five 15 mg doses, placebo 78.7",87.5
same,"MAS Visual Memory, mean change from baseline","[4]; Day 4, five 15 mg doses, placebo −1.50",8.54
same,MAS Visual Memory score versus placebo,"[4]; Day 4, p=0.023",significantly higher
same,MAS Verbal Memory versus placebo,"[4]; Day 4, p=0.31",not significantly different
same,MAS Short Term Memory versus placebo,"[4]; Day 4, p=0.72",not significantly different
same,effect on cognitive parameters,elderly population,significant positive effects on the cognitive parameters
c1csc(C2(N3CCCCC3)CCCCC2)c1 [[^3H]TCP],Kd,[1]; basal conditions,44 nM
